# Assay results from publication PMC11358582, “Discovery of a potential bladder cancer inhibitor CHNQD-01281 by regulating EGFR and promoting infiltration of cytotoxic T cells” (Marine Life Science & Technology, 2024).
# Assays:
# [1] = system: human hepatocyte cell line L-02; experiment: MTT cell proliferation assay; format: cell-based; details: L-02, MTT
# Method: Human tumor cell lines Eca-109, BEL-7402, BxPC-3, HCT-116, HT-29, T24, HCT-8, SGC-7901, DLD-1, TE-1, BT-549, MGC-803 and human hepatocyte cell line L-02 were cultured in Roswell Park Memorial Institute (RPMI) 1640. HuH-7 and SW-480 were cultured in Dulbecco’s modified Eagle’s medium (DMEM). J82, HepG2, Hela, U87 were cultured in Minimum Essential Medium (MEM). Murine bladder cancer cell line, MB49, was cultured in DMEM. The above-mentioned culture medium was provided by GIBCO (Grand Island, USA), contained 10% fetal bovine serum (PAN, Germany), 10 mg/mL of streptomycin, and 10 kU/mL penicillin (Beyotime, China).
# Cells were seeded in 96-well plates and incubated with indicated concentrations of CHNQD-01281 for indicated periods. Next, medium was discarded and MTT (5 mg/mL) was added to each well. The cells were incubated at 37 °C for another 4 h. After that, supernatant was discarded, and DMSO was added and incubated at 37 °C for 15 min. Finally, absorbance was measured at 570 nm (Molecular Devices, USA).
# Thus, the bladder cancer cell lines J82 and T24 were further investigated and treated by CHNQD-01281 under gradient concentrations (0.031−1.00 µmol/L) and times (24, 72 and 120 h) to measure proliferation activities (Fig. 2B). However, the inhibition of T24 or J82 cell lines by CHNQD-01281 was less than 50% even at the highest concentration of 1 µmol/L for 24 h. […] Therefore, CHNQD-01281 has a higher selectivity index compared to BFA.
# J82 cell line [2] = experiment: Colony formation assay; format: cell-based; details: Homo sapiens, 288 h, 12 days, read-out: inhibition rate on colony formation
# Method: (§1) T24 and J82 cell lines were seeded in 6-well plates at 500 cells/well. The cells were cultured overnight in medium. Compound CHNQD-01281 was added according to the concentration gradient, and the cells were placed in a 37 °C cell incubator containing 5% CO2 for 12 days. The cells were then fixed with 4% paraformaldehyde for 15 min and stained with crystal violet for 30 min. After that, pictures were taken and colony numbers were counted. The clone formation rate relative to the solvent control group was calculated.
# (§2) Cell proliferation ability was also detected by colony formation assay (Kabakov et al. [2018]), and the results are shown in Fig. 3A−B. CHNQD-01281 was applied for 12 days to detect long-term proliferation inhibition of T24 and J82 cell lines.
# T24 cell line [3] = experiment: Colony formation assay; format: cell-based; details: Homo sapiens, T-24, 288 h, 12 days, read-out: inhibition rate on colony formation
# Method: as §1, §2
# J82 cell line [4] = experiment: Cell apoptosis analysis (Annexin V); format: cell-based, human; details: J82, 0.32 µmol/L (control 4.15%)
# Method: (§3) T24 and J82 cell lines were seeded in 6-well plates (3 × 10^5 cells/well) and treated with different concentrations of CHNQD-01281 or DMSO. Muse™ Annexin V and Dead Cell assay kit (Muse TM Cell Analyzer, Millipore (catalog no. MCH100105)) was used to determine the cell apoptosis by Muse cell analyzer (Millipore, Billerica, MA, USA).
# (§4) Furthermore, treatment with CHNQD-01281 induced a dose-dependent increase in the total apoptosis of T24 and J82 cell lines. […] Meanwhile, the expression of apoptosis-related proteins cleaved PARP and cleaved caspase-3 were detected by Western blot. […] Therefore, CHNQD-01281 can induce DNA damage to arrest the cell cycle at the G0/G1 phase, affect the expression of DNA damage repair enzyme PARP, and finally induce apoptosis of bladder cancer cell lines.
# T24 cell line [5] = experiment: Cell apoptosis analysis (Annexin V); format: cell-based, human; details: T24, 0.32 µmol/L (control 3.45%)
# Method: as §3, §4
# cleaved PARP = experiment: Western blot of apoptosis-related protein; format: cell-based, human; details: Fig. S11b
# Method: (§5) T24 and J82 cell lines were lysed in protein lysis buffer, which included phosphatase inhibitors and a cocktail of protease inhibitors. A BCA kit (SparkJade, China) was used to determine the total protein concentration. After protein denaturation, SDS-PAGE electrophoresis was performed and the protein transferred from the gel to a PVDF membrane (Millipore, USA). Then primary antibodies against cleaved caspases-3, cleaved PARP, AKT, phosphorylated AKT, ERK1/2, phosphorylated ERK1/2, EGFR, mTOR, phosphorylated mTOR and Tubulin (CST, USA) were diluted at 1:1000 at 4 °C overnight. The membranes were then washed and incubated with secondary antibodies dissolved in 5% nonfat milk. A chemiluminescence imaging system was used to detect the signals (Tanon, China).
# as §4
# cleaved caspase-3 = experiment: Western blot of apoptosis-related protein; format: cell-based, human; details: Fig. S11b
# Method: as §5, §4
# [6] = Solubility in selected aqueous solutions; format: physicochemical
# From the text: The problem of poor water solubility is one of the factors that seriously restricts the preclinical application of BFA. Therefore, from the perspective of pharmaceutics, it is of great application value to explore safe and effective methods to improve its solubility. Based on the previous screening of commonly used solvents, solubilizers and co-solvents for BFA and its derivatives, we explored the solubility of CHNQD-01281, which was compared and assessed in selected aqueous solutions (Table 1). Saline or PBS were commonly used solvents, but the solubility of BFA or CHNQD-01281 was less than 1 mg/mL when used alone. No significant improvement in solubility was observed after the addition of DMSO or PEG400. […] More importantly, the solution system of CHNQD-01281 with saline/DMSO/solutol HS-15 (85/5/10) can fully meet the needs of follow-up experiments in vivo, such as pharmacodynamics, pharmacokinetics and safety evaluation.
compound,measurement,setting,value
"C[C@H]1CCC/C=C/[C@@H]2C[C@H](O)C[C@H]2[C@H](OC(=O)/C=C/c2cccnc2)/C=C/C(=O)O1 [CHNQD-01281, Brefeldin A 4-O-3-(pyridin-3-yl) acrylate]",IC90,[1],2520 nM
same,IC50,[1]; 72 h,1160 nM
same,inhibition at 0.04 µM,"J82 cell line [2]; J82, 0.04 µmol/L",25.1%
same,inhibition at 0.08 µM,"J82 cell line [2]; J82, 0.08 µmol/L",58.3%
same,inhibition at 0.16 µM,"J82 cell line [2]; J82, 0.16 µmol/L",85.9%
same,inhibition at 0.04 µM,"T24 cell line [3]; T24, 0.04 µmol/L",17%
same,inhibition at 0.08 µM,"T24 cell line [3]; T24, 0.08 µmol/L",52.5%
same,inhibition at 0.16 µM,"T24 cell line [3]; T24, 0.16 µmol/L",95.5%
same,total apoptotic cells,J82 cell line [4],27.9%
same,total apoptotic cells,T24 cell line [5],27.8%
same,maximum expression level of cleaved PARP,cleaved PARP,0.95 fold of the control group
same,maximum expression level of cleaved caspase-3,cleaved caspase-3,1.23 fold of the control group
same,solubility,[6]; Saline or PBS used alone,< 1000 µg/mL
same,solubility,"[6]; aqueous with cosolvent or surfactant or cyclodextrin, No. 2: Saline/DMSO 95/5, pH 7.4, 25 °C",< 1000 µg/mL
same,solubility,"[6]; aqueous with cosolvent or surfactant or cyclodextrin, No. 3: PBS/DMSO 95/5, pH 7.4, 25 °C",< 1000 µg/mL
same,solubility,"[6]; aqueous with cosolvent or surfactant or cyclodextrin, No. 4: Saline/PEG400 95/5, pH 7.4, 25 °C",< 1000 µg/mL
same,solubility,"[6]; aqueous with cosolvent or surfactant or cyclodextrin, No. 5: Saline/PEG400 80/20, pH 7.4, 25 °C",< 1000 µg/mL
same,solubility,"[6]; aqueous with cosolvent or surfactant or cyclodextrin, No. 6: Saline/DMSO/solutol HS-15 85/5/10, pH 7.4, 25 °C",12000 to 15000 µg/mL
same,solubility,"[6]; aqueous with cosolvent or surfactant or cyclodextrin, No. 7: Saline/solutol HS-15 95/5, pH 7.4, 25 °C",< 1000 µg/mL
same,solubility,"[6]; aqueous with cosolvent or surfactant or cyclodextrin, No. 8: Saline/solutol HS-15 90/10, pH 7.4, 25 °C",< 1000 µg/mL
same,solubility,"[6]; saline or isotonic, No. 1: Saline (0.9% NaCl) 100, pH 7.4, 25 °C",< 1000 µg/mL
same,improvement of solubility versus BFA,[6]; saline with 5% DMSO and 10% solutol HS-15,approximately tenfold
